Test results reported in patent publication US6528685B2 (Teva Pharmaceutical Industries, Ltd., priority 1994, dated 2003).
Counter-ions that a name gives are not always drawn.

Columns and labels:
[1] = system: Mechanically dissociated Neonatal Rat Cerebellum; test: Enhancement of cell survival, neonatal rat cerebellum cultures without NMDA; type: cell-based; conditions: 0.005 μM; 24 hours after addition, fourth day; percentage of control cells; no NMDA
Experimental: The cerebellum was aseptically dissociated from 6 or 7-day old rat pups and placed in a 15 ml sterile plastic conical tube containing 3 ml of Dulbecco's modified Eagle's medium (DMEM) with a high glucose concentration ([…]) and 2 mM (v/v) L-glutamine and an antibiotic antimitotic mixture. The cerebella were then dissociated after 20-25 passages through a sterile 13 gauge, 10 cm long stainless steel needle attached to a 5 ml syringe with an inserted 45 micrometer pore nylon sieve. The dissociated cells were centrifuged at 200 g for 5 minutes. […] Cell viability was determined by the tryptan blue exclusion test.
Cells were plated at a density of 200/mm^2 on poly-L-lysine coated surfaces. Poly-L-lysine coated glass coverslips were prepared at least one hour in advance of plating by immersing sterile coverslips in sterile distilled water solution containing 15 microgram/ml poly-L-lysine, and washing in sterile water just prior to use. […] After three days in culture, the media was replaced with media containing the desired test compound. Each test compound was tested in duplicate. Toxic-dose response was determined for each compound.
Cell cultures were grown as described above but in the absence of NMDA and after 3 days a dose of test compound was added. Cell survival was monitored as described above.

[2] = system: Mechanically dissociated Neonatal Rat Cerebellum; test: Reversal of NMDA induced cell death, neonatal rat cerebellum cultures; type: cell-based; conditions: for SURVIVING CELL IN CULTURE: relative to control (100%); for PERCENT PROTECTION: cell survival minus NMDA effect (30%); for EFFECTIVE PROTECTION: percent protection x 100/70
Experimental: The cerebellum was aseptically dissociated from 6 or 7-day old rat pups and placed in a 15 ml sterile plastic conical tube containing 3 ml of Dulbecco's modified Eagle's medium (DMEM) with a high glucose concentration ([…]) and 2 mM (v/v) L-glutamine and an antibiotic antimitotic mixture. The cerebella were then dissociated after 20-25 passages through a sterile 13 gauge, 10 cm long stainless steel needle attached to a 5 ml syringe with an inserted 45 micrometer pore nylon sieve. The dissociated cells were centrifuged at 200 g for 5 minutes. The supernatant was discarded and the cells resuspended in medium enriched with 15% (v/v) heat inactivated fetal calf serum. Cell viability was determined by the tryptan blue exclusion test.
Cells were plated at a density of 200/mm^2 on poly-L-lysine coated surfaces. Poly-L-lysine coated glass coverslips were prepared at least one hour in advance of plating by immersing sterile coverslips in sterile distilled water solution containing 15 microgram/ml poly-L-lysine, and washing in sterile water just prior to use. The plated cells were covered with enriched medium and incubated at 37° C. in an atmosphere of 5% CO2 in air and 97% humidity. After three days in culture, the media was replaced with media containing the desired test compound. Each test compound was tested in duplicate. Toxic-dose response was determined for each compound.
Four groups were run in each set of experiments;
I. Control, consisting of enriched media alone,
II. N-methyl-D-aspartate (NMDA, 1 mM for 3 hours) as the cytotoxic challenge,
III. Test compound plus NMDA, and
IV. Positive control, spermine(0.01 micromoles) plus NMDA.
Nerve cell survival was evaluated by phase contrast microscopy and tryptan blue staining after 24 hours.
Surviving cells in culture are measured relative to control (100%) as described above. Percent protection is the Cell Survival for the test compound minus the NMDA effect. Thus, maximal protection is 100% minus 30% NMDA effect i.e. 70%. The Effective Protection was calculated as the percent of the Percent Protection (X) divided by the maximal protection value (e.g. X×100/70).

rats [3] = conditions: rats p.o.
mice [4] = test: Neurotoxicity in mice, rotorod ataxia test; conditions: mice i.p.; rotorod ataxia test
Experimental: (§1) Neurotoxicity of the claimed agents was also assessed in mice (i.p. administration) by the rotorod ataxia test and/or in rats (p.o. administration) by positional sense test and gait stance test. […] The term quantitating the neurotoxicity is the medial neurological toxic dose (TD50), was determined in the above tests.

rats [5] = test: Maximal electroshock (MES) model, rats; conditions: rats, oral (p.o.) administration; median effective dose
mice [6] = conditions: mice i.p.
rats [7] = test: Neurotoxicity in rats, positional sense test and gait stance test; conditions: rats p.o.; positional sense test and gait stance test
Experimental: as §1

mongolian gerbils = test: Global brain ischemia in gerbils; type: in vivo, mongolian gerbil; conditions: 3 injections, fraction of hippocampi protected from ischemia, 14 days post-ischemia
Experimental: Male mongolian gerbils, aged 2.5-5 months, housed 4-8 in a cage, were supplied freely with food and water and maintained at 24° C. with a 12 hour day/night cycle. […] Each artery was clamped for 5 minutes with aneurysm clips to produce global brain ischemia. The anesthesia was discontinued upon clamping. After 5 minutes the clamps were removed and the wound closed with skin clips.
For treatment, the test compound or vehicle were injected intra-peritoneally (ip) in a volume of 50 microliters of solvent per 10 g body weight. The first injection was given two minutes after clamp removal, and thereafter daily for the next 2 post-operative days (total of 3 injections).
Seven groups each of 4-8 animals were compared:
V. Ischemia—Test compound treated, one sub-group per concentration tested,
VI. Ischemia and pentobarbital (40 mg/kg) as positive control).
Analysis of neuronal damage was performed 14 days post-ischemia by counting pyramidal neurons throughout the CA1 layer of the anterior hippocampus in […] thick (paraffin) coronal brain sections stained with hematoxylin and erosin.
Percent Protection values represent the fraction of hippocampi protected from ischemia in a group of animals treated with the stated dose of compound.

mice [8] = test: Maximal electroshock (MES) model, mice; conditions: mice, intraperitoneal (i.p.) administration

With `NC(=O)CN[C@H]1CCc2ccccc21` [Compound 2, (S)-N-(2-Acetamido)-1-aminoindan.HCl] the “% ENHANCED SURVIVAL” value [1] was 140%, the “SURVIVING CELL IN CULTURE” value ([2]; 0.005 μM + NMDA 1 mM 3 hours) was 56% and the “PERCENT PROTECTION” value ([2]; 0.005 μM + NMDA) was 26%. For the same compound, the “EFFECTIVE PROTECTION” value ([2]; 0.005 μM + NMDA) was 37%, the “SURVIVING CELL IN CULTURE” value ([2]; 0.010 μM + NMDA 1 mM 3 hours) was 51% and the “PERCENT PROTECTION” value ([2]; 0.010 μM + NMDA) was 21%. For the same compound, the “EFFECTIVE PROTECTION” value ([2]; 0.010 μM + NMDA) was 30%, the “SURVIVING CELL IN CULTURE” value ([2]; 0.100 μM + NMDA 1 mM 3 hours) was 33% and the “PERCENT PROTECTION” value ([2]; 0.100 μM + NMDA) was 3%. The “EFFECTIVE PROTECTION” value ([2]; 0.100 μM + NMDA) was 4%, the “RATS scMet ED50 PI” value (rats [3]) was over 250 mg/kg and the “MICE TD50” value (mice [4]) was 137 mg/kg. The “RATS MES 50” value (rats [5]) was 21 mg/kg, the “MICE scMet ED50 PI” value (mice [6]) was over 150 mg/kg and the “RATS TD50” value (rats [7]) was over 500 mg/kg. The “PERCENT PROTECTION” value (mongolian gerbils; 0.1 mg/kg ip) was 0%, the “PERCENT PROTECTION” value (mongolian gerbils; 1.0 mg/kg ip) was 50.0% and the “PERCENT PROTECTION” value (mongolian gerbils; 10.0 mg/kg ip) was 37.5%. The “MICE MES ED50” value (mice [8]) was 39 mg/kg.
